Literature values, collected in patent publication US20130164233A1, “SKIN-WHITENING ESSENCE COMPOSITION CONTAINING TYROSINASE INHIBITOR” (priority 2011, published 2013).

Tested on: skin
Details: conventionally

## NC[C@H]1CC[C@H](C(=O)O)CC1 [tranexamic acid]
  Concentration needed to give whitening effect: higher than 3%
